According to the supplement of paper PMC13380429:

Assays:
[1] = tested on: A549-ACE2 infected with SARS-CoV-2; assay: morphology score (similarity to uninfected cells); higher = more like uninfected cells; settings: 24 h
[2] = tested on: A549-ACE2 infected with SARS-CoV-2; assay: cell count relative to DMSO; higher = less toxic; settings: 24 h
Vero E6 [3] = assay: relative viability EC50 (midpoint between 100% and the lowest measured viability); higher = less toxic; settings: 72 h
U2OS [4] = assay: as above; settings: 72 h
[5] = tested on: A549-ACE2 infected with SARS-CoV-2; assay: SARS-CoV-2 infection rate relative to DMSO; higher = more infection; settings: 24 h
Caco-2 [6] = assay: drug sensitivity score (DSS) for viability; higher = more toxic; extreme values may be limits of the assay; settings: 72 h
HepG2 [7] = assay: as above; settings: 72 h
Vero E6 [8] = assay: as above; settings: 72 h
U2OS [9] = assay: as above; settings: 72 h
Calu-3 [10] = assay: as above; settings: 72 h
A549-ACE2 [11] = assay: drug-induced phospholipidosis relative to tamoxifen; higher = more phospholipidosis
Caco-2 [12] = assay: cell viability relative to DMSO; higher = less toxic; settings: 72 h
HepG2 [13] = assay: as above; settings: 72 h
Vero E6 [14] = assay: as above; settings: 72 h
U2OS [15] = assay: as above; settings: 72 h
Calu-3 [16] = assay: as above; settings: 72 h
A549-ACE2 [17] = assay: phospholipidosis EC50; higher = less potent phospholipidosis inducer
Caco-2 [18] = assay: relative viability EC50 (midpoint between 100% and the lowest measured viability); higher = less toxic; settings: 72 h
HepG2 [19] = assay: as above; settings: 72 h
Calu-3 [20] = assay: as above; settings: 72 h

CCSc1ccc2c(c1)N(CCCN1CCN(C)CC1)c1ccccc1S2 [thiethylperazine]
Settings | SARS-CoV-2 infection rate [%] | cell count [%] | cell viability [%] | morphology score | phospholipidosis EC50 [µM]
A549-ACE2 [17], 24 h | – | – | – | – | 3.52
A549-ACE2 [17], 48 h | – | – | – | – | 5.17
A549-ACE2 [17], 72 h | – | – | – | – | 6.75
Caco-2 [12], 1 nM | – | – | 101 | – | –
Caco-2 [12], 10 nM | – | – | 95.4 | – | –
Caco-2 [12], 100 nM | – | – | 91.7 | – | –
Caco-2 [12], 1000 nM | – | – | 98.4 | – | –
Caco-2 [12], 10000 nM | – | – | 69.6 | – | –
Calu-3 [16], 1 nM | – | – | 101 | – | –
Calu-3 [16], 10 nM | – | – | 89.2 | – | –
Calu-3 [16], 100 nM | – | – | 95.9 | – | –
Calu-3 [16], 1000 nM | – | – | 110 | – | –
Calu-3 [16], 10000 nM | – | – | 59.9 | – | –
HepG2 [13], 1 nM | – | – | 98 | – | –
HepG2 [13], 10 nM | – | – | 100 | – | –
HepG2 [13], 100 nM | – | – | 101 | – | –
HepG2 [13], 1000 nM | – | – | 89.5 | – | –
HepG2 [13], 10000 nM | – | – | 55.6 | – | –
U2OS [15], 1 nM | – | – | 103 | – | –
U2OS [15], 10 nM | – | – | 102 | – | –
U2OS [15], 100 nM | – | – | 106 | – | –
U2OS [15], 1000 nM | – | – | 106 | – | –
U2OS [15], 10000 nM | – | – | 91.6 | – | –
Vero E6 [14], 1 nM | – | – | 97.7 | – | –
Vero E6 [14], 10 nM | – | – | 95.5 | – | –
Vero E6 [14], 100 nM | – | – | 95 | – | –
Vero E6 [14], 1000 nM | – | – | 102 | – | –
Vero E6 [14], 10000 nM | – | – | 83.2 | – | –
[1], 0.3 µM | – | – | – | 0.15 | –
[1], 3 µM | – | – | – | 0.81 | –
[1], 10 µM | – | – | – | 0.8 | –
[1], 30 µM | – | – | – | -0.01 | –
[2], 0.3 µM | – | 98 | – | – | –
[2], 3 µM | – | 116 | – | – | –
[2], 10 µM | – | 122 | – | – | –
[2], 30 µM | – | 17 | – | – | –
[5], 0.3 µM | 99 | – | – | – | –
[5], 3 µM | 40 | – | – | – | –
[5], 10 µM | 12 | – | – | – | –
[5], 30 µM | 61 | – | – | – | –

Settings | drug sensitivity score | relative viability EC50 [µM]
Caco-2 [6] | 1.6 | –
Calu-3 [10] | 1.5 | –
HepG2 [7] | 3.9 | –
U2OS [4] | – | > 10
U2OS [9] | 0 | –
Vero E6 [3] | – | > 10
Vero E6 [8] | 0.3 | –

drug-induced phospholipidosis [%], A549-ACE2 [11]
Settings | 0.3 µM | 0.833333 µM | 3.33333 µM | 6.66667 µM | 10 µM | 30 µM
24 h | 2.75 | 4.77 | 26.3 | 67.4 | 80 | 53.2
48 h | 3.55 | 4.25 | 19.4 | 77.1 | 97 | –
72 h | 4.26 | 5.76 | 19.6 | 70 | 104 | –

CC[N+](CC)(CC)CCC(O)(c1ccccc1)C1CCCCC1 (stereo not drawn) [tridihexethyl]
Settings | drug sensitivity score | relative viability EC50 [µM]
Caco-2 [6] | 0 | –
Caco-2 [18] | – | > 10
Calu-3 [10] | 0 | –
Calu-3 [20] | – | > 10
HepG2 [7] | 0 | –
HepG2 [19] | – | > 10
U2OS [4] | – | > 10
U2OS [9] | 0 | –
Vero E6 [3] | – | > 10
Vero E6 [8] | 0 | –

cell viability [%]
Settings | Caco-2 [12] | Calu-3 [16] | HepG2 [13] | U2OS [15] | Vero E6 [14]
1 nM | 100 | 104 | 99.8 | 101 | 96.4
10 nM | 92.8 | 104 | 108 | 94.5 | 93.6
100 nM | 102 | 96.9 | 92.5 | 97.1 | 97.2
1000 nM | 92.7 | 103 | 89 | 106 | 97.6
10000 nM | 110 | 106 | 112 | 103 | 103

c1cnc2cc3c(cc2n1)[C@@H]1CNC[C@H]3C1 [varenicline]
Settings | drug sensitivity score | relative viability EC50 [µM]
Caco-2 [6] | 0 | –
Caco-2 [18] | – | > 10
Calu-3 [10] | 0 | –
Calu-3 [20] | – | > 10
HepG2 [7] | 0 | –
HepG2 [19] | – | > 10
U2OS [4] | – | > 10
U2OS [9] | 0 | –
Vero E6 [3] | – | > 10
Vero E6 [8] | 0 | –

cell viability [%]
Settings | Caco-2 [12] | Calu-3 [16] | HepG2 [13] | U2OS [15] | Vero E6 [14]
1 nM | 95.4 | 105 | 97.2 | 97.5 | 91
10 nM | 91.9 | 99.1 | 88.7 | 93.5 | 99.8
100 nM | 103 | 108 | 90.4 | 103 | 91.4
1000 nM | 93.1 | 98.1 | 95.4 | 96.3 | 98.7
10000 nM | 93.7 | 105 | 101 | 104 | 104
